Data taken from patent US20260184675A1, “CHIRAL ISOMERIC SULFITE COMPOUND AND APPLICATION THEREOF” (Chengdu Hanova BioSciences Co., Ltd, priority 2024, published 2026).

Key:
[1] = tested on: eggs of Harmonia axyridis; assay: Effect on hatching of eggs of Harmonia axyridis, egg card immersion; assay type: in vivo; settings: 100 ppm; for Number of hatched larvae 4 days after insecticide delivery, Replicate 1 / Number of hatched larvae 4 days after insecticide delivery, Replicate 2 / Number of hatched larvae 4 days after insecticide delivery, Replicate 3: Harmonia axyridis egg cards, immersed 30 seconds; for Hatching rate (%), Replicate 1 / Hatching rate (%), Replicate 2 / Hatching rate (%), Replicate 3: Harmonia axyridis eggs, 4 days after delivery
From the text: The eggs of Harmonia axyridis cards (with approximately 20 eggs per card) were purchased from Henan Jiyuan Baiyun Industry Co., Ltd. in Henan Province. The number of eggs on the egg cards was counted as the basic number before insecticide delivery, and 5 cards were used as one treatment, with 3 replicates per treatment. After immersing the egg cards in a 100 ppm insecticide solution for 30 seconds, they were taken out and air dried, then cultivated under moisturizing conditions, and the […] were cultivated at 27° C. 4 days after insecticide delivery, the hatching status of eggs of Harmonia axyridis was investigated, and the prevention and control effect was calculated according to the following formula. [formula] [formula]

[2] = tested on: pest eggs of Tetranychus cinnabarinus; assay: Effect on hatching of pest eggs of Tetranychus cinnabarinus, leaf disc method; assay type: in vivo; settings: for Hatching rate (%): 7 days after insecticide delivery
Protocol: (§1) • (1) Preparation of leaf discs containing eggs: 20 female adult mites of Tetranychus cinnabarinus were transferred onto leaf discs of Vicia faba with a diameter of 2.0 cm (with wetted filter paper at the bottom), then covered it with a lidded culture dish and cultivated under moisturizing conditions, the adult mites were removed within 36 hours and microscopic examination and counting were performed on leaf discs containing eggs. • (2) Investigation of egg population base: Before pesticide soaking, a microscopic examination was conducted on the egg basic number of each leaf disc, with 2 replicates set for each treatment. • (3) Pesticide soaking treatment: The leaf butterflies loaded with mite eggs were soaked in clear water and sulfite compounds for 10 seconds, respectively, then taken out and cultivated under moisturizing conditions. Each treatment should be repeated for no less than 3 times. • (4) Cultivation and observation: The […] were cultivated under normal conditions. Five days after insecticide delivery, the hatching status of mite eggs was investigated. • Note: The temperature and humidity conditions of the constant temperature and humidity incubator after the treatment should be controlled so as to avoid excessive temperature differences, which may cause generation and dripping of condensate water in the culture dish, resulting in abnormal death of eggs due to soaking in water; it is also necessary to ensure sufficient strong ambient light, without directing irradiating the leaves. • (5) Survey of Results: The experimental materials of each treatment group were regularly hydrated and moisturized, and the hatching of eggs was observed. On the 7th day after insecticide delivery, the number of hatched eggs for each treatment was recorded, and the survey of results was recorded in the original notebook. According to the experimental requirements and characteristics of agents, the survey time can be shortened or extended. • 1) Surveying and recording the number of hatched eggs for each treatment. • 2) Photographing and recording whether there was any pesticide damage to the leaf discs of Vicia faba. • 3) Recording the developmental status of experimental mite eggs, behavior status of nymph mites, including abnormal phenomena such as delayed or stopped development of mite eggs, difficulty in breaking hull for nymph mites, or painful struggles after hatching, etc. • (6) Calculation method: Based on the survey data, the prevention and control effect of each treatment was calculated according to the following formula, and the calculation results were kept to two decimal places. [formula] [formula] [table]

Magnaporthe grisea = assay type: cell-based; settings: 100 ppm; for Average antifungal rate (%) / Antifungal rate of Magnaporthe grisea (%), Replicate 1 / Antifungal rate of Magnaporthe grisea (%), Replicate 2 / Antifungal rate of Magnaporthe grisea (%), Replicate 3: 96-well plate; for Average antifungal rate (%): average of 3 replicates
eggs of Aleyrodidae = assay: Effect on hatching of eggs of Aleyrodidae, leaf disc method; assay type: in vivo; settings: 10 ppm; for Hatching rate (%), Replicate 1 / Hatching rate (%), Replicate 2 / Hatching rate (%), Replicate 3 / Number of hatched larvae 5 days after insecticide delivery, Replicate 1 / Number of hatched larvae 5 days after insecticide delivery, Replicate 2 / Number of hatched larvae 5 days after insecticide delivery, Replicate 3: Aleyrodidae eggs; for Hatching rate (%), Replicate 1 / Hatching rate (%), Replicate 2 / Hatching rate (%), Replicate 3: 5 days after delivery; for Number of hatched larvae 5 days after insecticide delivery, Replicate 1 / Number of hatched larvae 5 days after insecticide delivery, Replicate 2 / Number of hatched larvae 5 days after insecticide delivery, Replicate 3: leaf disc
Protocol: as §1, with “extended.” for “extended. • 1) Surveying and recording the number of hatched eggs for each treatment. • 2) Photographing and recording whether there was any pesticide damage to the leaf discs of Vicia faba. • 3) Recording the developmental status of experimental mite eggs, behavior status of nymph mites, including abnormal phenomena such as delayed or stopped development of mite eggs, difficulty in breaking hull for nymph mites, or painful struggles after hatching, etc. • (6) Calculation method: Based on the survey data, the prevention and control effect of each treatment was calculated according to the following formula, and the calculation results were kept to two decimal places. [formula] [formula] [table]”
• 1) Surveying and recording the number of hatched eggs for each treatment. • 2) Photographing and recording whether there was any pesticide damage to the leaf discs of Vicia faba. • 3) Recording the developmental status of experimental mite eggs, behavior status of nymph mites, including abnormal phenomena such as delayed or stopped development of mite eggs, difficulty in breaking hull for nymph mites, or painful struggles after hatching, etc. • (6) Calculation method: Based on the survey data, the prevention and control effect of each treatment was calculated according to the following formula, and the calculation results were kept to two decimal places.
This test adopted the method in Test Example 1 of technical section, mainly used leaf disc method to explore the inhibitory effect on hatching of eggs of Aleyrodidae by compounds 1-(S,S), 1-(S,R), 1-(R,R), 1-(R,S), 1′-(S,S), 1′-(S,R), 1′-(R,R), 1′-(R,S), compound 1, compound 1′, S-10, R-10, S-10′, R-10′, compound 10, compound 10′, compound 19-(S,S), 19-(S,R), 19-(R,R), 19-(R,S), 19′-(S,S), 19′-(S,R), 19′-(R,R), 19′-(R,S), compound 19, and compound 19′. The concentration of all compounds was 10 ppm.

SMILES | Hatching rate (%) ([2]; 0.25 mg/L, Replicate 1) | Hatching rate (%) ([2]; 0.25 mg/L, Replicate 2) | Number of hatched larvae 7 days after insecticide delivery ([2]; 0.25 mg/L, Replicate 1) | Number of hatched larvae 7 days after insecticide delivery ([2]; 0.25 mg/L, Replicate 2) | Hatching rate (%) ([2]; 0.5 mg/L, Replicate 1) | Hatching rate (%) ([2]; 0.5 mg/L, Replicate 2) | Number of hatched larvae 7 days after insecticide delivery ([2]; 0.5 mg/L, Replicate 1) | Number of hatched larvae 7 days after insecticide delivery ([2]; 0.5 mg/L, Replicate 2) | Hatching rate (%) ([2]; 1 mg/L, Replicate 1) | Hatching rate (%) ([2]; 1 mg/L, Replicate 2) | Number of hatched larvae 7 days after insecticide delivery ([2]; 1 mg/L, Replicate 1) | Number of hatched larvae 7 days after insecticide delivery ([2]; 1 mg/L, Replicate 2) | inhibitory rate against Magnaporthe grisea (in words) (Magnaporthe grisea) | Average antifungal rate (%) (Magnaporthe grisea) | Antifungal rate of Magnaporthe grisea (%), Replicate 1 (Magnaporthe grisea) [%] | Antifungal rate of Magnaporthe grisea (%), Replicate 2 (Magnaporthe grisea) [%] | Antifungal rate of Magnaporthe grisea (%), Replicate 3 (Magnaporthe grisea) [%] | further results
CC(COc1ccc(Cl)cc1Cl)OS(=O)OCCF [1′-(S,S)] | 64.58 | 69.57 | 17 | 14 | 27.59 | 12.00 | 42 | 66 | 16.36 | 14.63 | 46 | 35 | strong inhibitory rate | 81.44 | 84.82 | 83.06 | 76.44 | Number of hatched larvae 4 days after insecticide delivery, Replicate 1 ([1]; listed as 1′-(S, S)): 18; Number of hatched larvae 4 days after insecticide delivery, Replicate 2 ([1]; listed as 1′-(S, S)): 19; Number of hatched larvae 4 days after insecticide delivery, Replicate 3 ([1]; listed as 1′-(S, S)): 21; Hatching rate (%), Replicate 1 ([1]; listed as 1′-(S, S)): 19.57%; Hatching rate (%), Replicate 2 ([1]; listed as 1′-(S, S)): 19.39%; Hatching rate (%), Replicate 3 ([1]; listed as 1′-(S, S)): 18.69%; Hatching rate (%), Replicate 1 (eggs of Aleyrodidae; listed as 1′-(S, S)): 15.15%; Hatching rate (%), Replicate 2 (eggs of Aleyrodidae; listed as 1′-(S, S)): 16.19%; Hatching rate (%), Replicate 3 (eggs of Aleyrodidae; listed as 1′-(S, S)): 15.38%; Number of hatched larvae 5 days after insecticide delivery, Replicate 1 (eggs of Aleyrodidae; listed as 1′-(S, S)): 20; Number of hatched larvae 5 days after insecticide delivery, Replicate 2 (eggs of Aleyrodidae; listed as 1′-(S, S)): 17; Number of hatched larvae 5 days after insecticide delivery, Replicate 3 (eggs of Aleyrodidae; listed as 1′-(S, S)): 12
CC(COc1ccc(Cl)cc1Cl)OS(=O)OCCF [1′-(R,S)] | 54.17 | 29.17 | 22 | 68 | 1.25 | 5.00 | 79 | 76 | 0.00 | 0.00 | 62 | 42 | strong inhibitory rate | 100.09 | 100.26 | 99.74 | 100.26 | inhibitory activity on the hatching of eggs of Harmonia axyridis (in words) [1]: strong inhibitory activities; Number of hatched larvae 4 days after insecticide delivery, Replicate 1 ([1]; listed as 1′-(R, S)): 0; Number of hatched larvae 4 days after insecticide delivery, Replicate 2 ([1]; listed as 1′-(R, S)): 0; Number of hatched larvae 4 days after insecticide delivery, Replicate 3 ([1]; listed as 1′-(R, S)): 0; Hatching rate (%), Replicate 1 ([1]; listed as 1′-(R, S)): 0.00%; Hatching rate (%), Replicate 2 ([1]; listed as 1′-(R, S)): 0.00%; Hatching rate (%), Replicate 3 ([1]; listed as 1′-(R, S)): 0.00%; inhibitory effect on the hatching of pest eggs of Tetranychus cinnabarinus (in words) ([2]; 1 ppm): excellent inhibitory effects; inhibitory activity on the hatching of eggs of Aleyrodidae (in words) (eggs of Aleyrodidae): strong inhibitory activities; Hatching rate (%), Replicate 1 (eggs of Aleyrodidae; listed as 1′-(R, S)): 0.00%; Hatching rate (%), Replicate 2 (eggs of Aleyrodidae; listed as 1′-(R, S)): 0.00%; Hatching rate (%), Replicate 3 (eggs of Aleyrodidae; listed as 1′-(R, S)): 0.00%; Number of hatched larvae 5 days after insecticide delivery, Replicate 1 (eggs of Aleyrodidae; listed as 1′-(R, S)): 0; Number of hatched larvae 5 days after insecticide delivery, Replicate 2 (eggs of Aleyrodidae; listed as 1′-(R, S)): 0; Number of hatched larvae 5 days after insecticide delivery, Replicate 3 (eggs of Aleyrodidae; listed as 1′-(R, S)): 0
